These results are taken from US6399827B1, “Quaternary ammonium phosphate compound and method of preparing same” (SK Chemicals, priority 1997, dated 2002).

What all share (type): cell-based
The subject of test [1] is Bacteria. Put plainly: Biocidal effect test (MIC), bacteria. The note with it: serial dilution, 10^4 cfu/ml, 48 hours at 30° C., nutrient broth, turbidity read visually, range over 8 bacterial strains; for MIC: read-out: Minimal Inhibition Concentration (ppm) Bacteria. On the procedure:
(§1) This test was carried out for the purpose of measuring a biocidal effect of the compounds obtained from examples 1, 3 and 4. A test material was diluted using a serial dilution method in a 96-multiwelled plate. 10^4 cfu/ml of microbes were inoculated in the diluted solution. After the microbes were cultivated for 48 hours at 30° C., MIC (Minimal Inhibition Concentration of microorganisms) was visually observed to decide whether or not microbial growth occurred from the turbidity. The growth medium was nutrient broth, DIFCO, and the strains used were as follows.
Enterobacter aerogenes ATCC 13048, Escherichia coli ATCC 11229, Micrococcus luteus ATCC 9431, Pseudomonas aeruginosa ATCC 15442, Shigella sonnei ATCC 9290, Staphylococcus epidermis ATCC 155, Staphylococcus aureus ATCC 6538 and Bacillus subtilis ATCC 6984.

Test [2] deals with Yeasts. Put plainly: Biocidal effect test (MIC), yeasts. The note with it: serial dilution, 10^4 cfu/ml, 48 hours at 30° C., nutrient broth, turbidity read visually, range over 4 yeast strains; for MIC: Saccharomyces cerevisiae, read-out: Minimal Inhibition Concentration (ppm) yeasts. As to the method:
as §1
Candida albicans ATCC 10231, Rhodotorula rubra ATCC 9449, Cryptococcus neoformans ATCC 34144 and Saccharomyces cerevisiae ATCC 9763.

Test [3] concerns Fungi. The experiment in a line: Biocidal effect test (MIC), fungi. The note with it: serial dilution, 10^4 cfu/ml, 48 hours at 30° C., nutrient broth, turbidity read visually, range over 4 fungal strains; for MIC: read-out: Minimal Inhibition Concentration (ppm) fungi. On the procedure: as §1
Penicillium citrinum ATCC 98404, Trichoderma viridae ATCC 1287, Rhizopus oryzae ATCC 10404 and Aspergillus niger ATCC 9642.

Regarding `CC(C)(C)CC(C)(C)c1ccc(OCCOCC[N+](C)(C)Cc2ccccc2)cc1.O=P([O-])(O)O` [example 1, N-dimethyl-N-[p-(α,α,γ,γ)-tetramethylbutylphenoxy]ethoxy ethyl-N-benzyl ammonium phosphate], in test [1], the “Minimal Inhibition Concentration (ppm) Bacteria” value is 6.3˜12.5 ppm. In test [2], the “Minimal Inhibition Concentration (ppm) yeasts” value was 6.3˜12.5 ppm. The “Minimal Inhibition Concentration (ppm) fungi” value in test [3] was 25˜100 ppm.
As for `CC(C)(C)CC(C)(C)c1ccc(OCCOCC[N+](C)(C)Cc2ccccc2)cc1.[Cl-]` [A, N-dimethyl-N-[p-(α,α,γ,γ)-tetramethylbutylphenoxy]ethoxy ethyl-N-benzyl chloride], the “Minimal Inhibition Concentration (ppm) Bacteria” value in test [1] is listed as 12.5˜25 ppm. Further, the “Minimal Inhibition Concentration (ppm) yeasts” value in test [2] is on record as 12.5˜25 ppm. In addition, the “Minimal Inhibition Concentration (ppm) fungi” value in test [3] is recorded as 25˜100 ppm.
Turning to `CCCCCCCCCCCCCC[N+]1(Cc2ccccc2)CCOCC1.N.O=P([O-])(O)O` [example 4, 4-benzyl-4-tetradecyl morpholinium ammonium phosphate], the MIC lay in the range of 6.3 to 12.5 µg/mL in test [1], 12.5 to 25 µg/mL in test [2] and 25 to 100 µg/mL in test [3].
For the compound `CCCCCCCCCCCCCC[N+]1(Cc2ccccc2)CCOCC1.Cl.N.[Cl-]` [B, 4-benzyl-4-tetradecyl morpholinium ammonium chloride], the MIC in test [1] lay within 6.3 to 12.5 µg/mL; in test [2], 6.3 to 25 µg/mL; in test [3], 25 to 100 µg/mL.
